{"source": "patent US11673877B2", "about": "(priority 2017, dated 2023)", "key": {"[1]": {"conditions": "solid form, no method given"}, "[2]": {"conditions": "for hygroscopicity from DVS curve: 5 to 95% RH; for solid form by XRPD after the DVS experiment: after adsorption/desorption cycle 5-95-5% RH", "protocol": "DVS analyses were carried out TA Instruments Q5000 Dynamic Vapor Sorption analyzer. The instrument was calibrated with standard weights and a sodium bromide standard for humidity. Samples were analyzed at 25° C. with a maximum equilibration time of 60 minutes in 10% relative humidity (RH) steps from 5 to 95% RH (adsorption cycle) and from 95 to 5% RH (desorption cycle).\nAfter the experiment the samples were analyzed by XRPD."}, "[3]": {"conditions": "for water activity at which the form is the preferred form: slurry in water/DMSO mixtures, 2 days", "protocol": "Powder samples were prepared in a low background Si holder using light manual pressure to keep the sample surfaces flat and level with the reference surface of the sample holder. Each sample was analyzed from 2 to 40° 2θ using a continuous scan of 6° 2θ per minute with an effective step size of 0.02° 2θ. Unless otherwise noted, XPRD studies were performed at room temperature and room humidity.\nSlurry experiments designed to provide a range of water activities were carried out in solvent mixtures containing water and dimethylsulfoxide (Table 1). […] The samples were analyzed while wet to avoid changes, such as the hydrate converting to the anhydrate, from drying."}, "physchem": {"test": "physchem", "conditions": "aqueous solution, aqueous buffer"}, "PARP": {"test_system": "PARP", "conditions": "read-out: inhibition of PARP activity EC50; whole cell assay; cited from earlier work"}, "[4]": {"test_system": "cancer cells with mutant BRCA-1 and BRCA-2", "conditions": "read-out: inhibition of proliferation CC50; cited from earlier work"}}, "note": "Like-named read-outs stand apart in the source and are kept apart here."}
{"smiles": "NC(=O)c1cccc2cn(-c3ccc([C@@H]4CCCNC4)cc3)nc12", "note": "[2-{4-[(3S)-piperidin-3-yl]phenyl}-2H-indazole-7-carboxamide, reference compound]", "values": [{"measurement": "hygroscopicity", "setting": "[1]", "result": "highly hygroscopic"}]}
{"smiles": "NC(=O)c1cccc2cn(-c3ccc([C@@H]4CCCNC4)cc3)nc12", "note": "[Form III, 2-{4-[(3S)-piperidin-3-yl]phenyl}-2H-indazole-7-carboxamide]", "values": [{"measurement": "hygroscopicity from DVS curve", "setting": "[2]; 25° C.", "result": "very hygroscopic"}, {"measurement": "solid form by XRPD after the DVS experiment", "setting": "[2]", "result": "converted to the monohydrate"}, {"measurement": "DVS weight gain", "setting": "[2]; up to 95% RH, 25° C.", "result": "approximately 15.8%"}, {"measurement": "water activity at which the form is the preferred form", "setting": "[3]", "result": "≤ 0.11"}]}
{"smiles": "Cc1ccc(S(=O)(=O)O)cc1.NC(=O)c1cccc2cn(-c3ccc([C@@H]4CCCNC4)cc3)nc12", "note": "[Niraparib tosylate monohydrate, 2-{4-[(3S)-piperidin-3-yl]phenyl}-2H-indazole 7-carboxamide 4-methylbenzenesulfonate hydrate (1:1.1)]", "values": [{"measurement": "hygroscopicity from DVS curve", "setting": "[2]; 25° C.", "result": "not hygroscopic"}, {"measurement": "solid form by XRPD after the DVS experiment", "setting": "[2]", "result": "remained unchanged"}, {"measurement": "water activity at which the form is the preferred form", "setting": "[3]", "result": "≥ 0.22"}, {"measurement": "hygroscopicity", "setting": "[1]", "result": "non-hygroscopic"}]}
{"smiles": "NC(=O)c1cccc2cn(-c3ccc([C@@H]4CCCNC4)cc3)nc12", "note": "[Niraparib, 2-{4-[(3S)-piperidin-3-yl]phenyl}-2H-indazole-7-carboxamide]", "values": [{"measurement": "solubility", "setting": "physchem", "result": "700 to 1100", "unit": "µg/mL"}, {"measurement": "EC50", "setting": "PARP", "result": "[…]"}, {"measurement": "CC50", "setting": "[4]", "result": "10 to 100", "unit": "nM"}]}
{"smiles": "Cc1ccc(S(=O)(=O)O)cc1.NC(=O)c1cccc2cn(-c3ccc([C@@H]4CCCNC4)cc3)nc12", "note": "[niraparib tosylate, 2-{4-[(3S)-piperidin-3-yl]phenyl}-2H-indazole-7-carboxamide tosylate]", "values": [{"measurement": "XRPD Result", "setting": "[3]; 0 % water in DMSO, water activity 0, 2 days", "result": "anhydrate"}, {"measurement": "XRPD Result", "setting": "[3]; 17.2 % water in DMSO, water activity 0.22, 2 days", "result": "hydrate"}, {"measurement": "XRPD Result", "setting": "[3]; 27.6 % water in DMSO, water activity 0.38, 2 days", "result": "hydrate"}, {"measurement": "XRPD Result", "setting": "[3]; 43.3 % water in DMSO, water activity 0.60, 2 days", "result": "hydrate"}, {"measurement": "XRPD Result", "setting": "[3]; 82.8 % water in DMSO, water activity 0.84, 2 days", "result": "hydrate"}, {"measurement": "XRPD Result", "setting": "[3]; 100.0 % water, water activity 1.00, 2 days", "result": "hydrate"}]}
